Measured values taken from the NIST ThermoML archive (doi:10.1016/j.jct.2017.11.009).
Numbers after ± are expanded uncertainties.

Experiment: Boiling temperature at pressure P
Details: 101.3 kPa; Liquid; Ebulliometric method (Recirculating still)

For `OCCO` [1,2-ethanediol], the “Boiling temperature at pressure P” value was 197.17 ± 0.4 °C.

For `C=CCO` [2-propenol], the “Boiling temperature at pressure P” value was 96.80 ± 0.4 °C.

In the case of `CNC=O` [N-methylformamide], the “Boiling temperature at pressure P” value is reported as 199.10 ± 0.4 °C.

For `CN1CCCC1=O` [N-methylpyrrolidone], the “Boiling temperature at pressure P” value was 202.29 ± 0.4 °C.
